Source: US20250115598A1 (Anaxis Pharma Pty Ltd, priority 2021, published 2025)
pIC50, pKd: −log10 of the molar value.

Tests used:
U937 cells = assay: Counter screen: cell viability without the TSQ cocktail (off-target effect); parameters: species or system human; details: Homo sapiens, U-937, Table 23, read-out: Off-target effect (IC50 cell-based assay)
Experimental: • Cell Line ID: U937 human histiocytic leukemia cell line. • Cell Concentration (cells/well): Final cell density is 20000 cells per well. • Cell growth medium: HT-RPMI medium+7.4% Fetal Bovine Serum (FBS). Cells are cultured in Corning 150 cm^2 tissue culture flasks with vented caps at 37° C./5% CO2. • Incubation: Plates were incubated at 37° C./5% CO2 in a humidified incubator for 48 hours following addition of compounds and death stimuli (TSQ cocktail). • Compound concentration: 36 μM starting concentration, 1:3 dilution, 10 point • DMSO final concentration (% v/v): 0.3%. Compounds in TSQ Cocktail (T: TNF; S: Smac Mimetic; Q: Q-VD-OPh) and their Final Concentrations: • hTNF-Fc (100 ng/ml)—produced by standard procedures as shown in Bossen et al., J. Biol. Chem., 2006, 281(20), 13964-13971. • Compound A (500 nM)—Smac mimetic, Tetralogic and SYNthesis med chem • Q-VD-OPh (10 μM)—MP Biomedicals
The cellular assay was carried out according to the following steps: • 1. Each well was prepared by sequential addition of: • a. DMSO (control; columns 1-2 and 23-24) or compound in DMSO—addition was performed using acoustic transfer of nL volumes of stock compound to give final test concentrations of 36, 12, 4, 1.3, 0.44, 0.148, 0.049, 0.016, 0.005 and 0.002 μM. All wells were backfilled with DMSO to a final total volume in the well of 100 nL. • b. Following compound/DMSO addition in step (a), 40 μL of cell suspension (5×10^5 cells/mL) was added to provide a final cell concentration of 20,000 cells per well, and • c. Following cell addition in step (b), 10 μL of 5×TSQ cocktail (except to positive controls; columns 1 and 23) was added to each well. • 2. After 48 hours, plate was removed from the 37° C. incubator and equilibrated to room temperature for 45 minutes. • 3.15 μL of room temperature CellTitre-Glo2™ (Promega™) was added to each well. • 4. Shook plates for 2 minutes (˜600 rpm) and incubated at room temperature for 15 minutes to allow signal to stabilise. • 5. Read luminescence readout on a plate reader.
• Assay involving the TSQ cocktail (T: TNF; S: Smac mimetic; Q: Q-VD-OPh): TSQ treatment ensures that cells specifically undergo necroptotic cell death. TNF activates the TNF receptor, Smac mimetic directs the signal away from proinflammatory signaling and toward the RIPK1/RIPK3-mediated cell death pathways, and Q-VD-OPh ensures that the apoptotic response is blocked leaving only the programmed necrosis response. The compounds' activity (solution in DMSO) tested in this TSQ-induced assay was evaluated by determining the number of viable cells in culture by measuring the amount of ATP present as measured by CelltiterGlo. • Counter screen: In parallel, all compounds were tested for their ability to affect cell viability. The same U937 cells were treated with compound in DMSO without the TSQ cocktail. This counter screen enabled evaluation of off-target effects. In this case, cell viability was measured by CelltiterGlo.

human MLKL (full length) = human MLKL (full length) (Homo sapiens (Human), UniProt Q8NB16); assay: KINOMEscan binding assay, human MLKL (full length); details: hMLKL, Table 25; read-out: MLKL (KD)
Outline: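 In this assay, compounds displace DNA- or phage-tagged kinase from an immobilized ligand, and eluted kinase is quantified by qPCR.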

[1] = system: Immortalised Mouse Dermal Fibroblasts (MDFs); assay: Cellular assay: inhibition of TSI induced necroptosis, CellTitre-Glo viability; details: Mus musculus, Fibroblast; MDF, 3 hours TSI cocktail, Table 27; read-out: Inhibition of TSI-induced necroptosis (IC50 cell-based assay) in MDF
Outline: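 Necroptosis induced for 3 h with TSI: rhTNF 100 ng/ml, Smac mimetic 500 nM, caspase inhibitor IDN-6556 10 μM. Mouse dermal fibroblasts had received compound (36 μM top, ten three-fold steps) 30 min beforehand. ATP-based viability scaled between untreated and TSI-only wells; IC50 taken as 4-parameter curve inflection.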

endogenous MLKL in U937 = endogenous MLKL in U937 (Homo sapiens (Human), UniProt Q8NB16); assay: Degradation assay: endogenous MLKL in U937 (western blot); details: U937, 24 h incubation, read-out: Degradation of endogenous MLKL in U937 (DC50 cell-based assay)
Outline: (§1)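 Western blot band intensity of MLKL, adjusted to GAPDH loading and normalized to DMSO-only wells, gave percent degradation. Compound exposure lasted 24 h at final concentrations of 10–0.016 μM in 1:5 steps, in mouse dermal fibroblasts or human U937 cells.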

endogenous MLKL in MDF = endogenous MLKL in MDF (Mus musculus (Mouse), UniProt Q9D2Y4); assay: Degradation assay: endogenous MLKL in MDF (western blot); details: MDF cells, 24 h incubation with compound, MLKL adjusted for loading with GAPDH, normalized to DMSO only control, read-out: Degradation of endogenous MLKL in MDF (DC50 cell-based assay)
Outline: as §1

Sequence of endogenous MLKL in MDF (Q9D2Y4 whole entry): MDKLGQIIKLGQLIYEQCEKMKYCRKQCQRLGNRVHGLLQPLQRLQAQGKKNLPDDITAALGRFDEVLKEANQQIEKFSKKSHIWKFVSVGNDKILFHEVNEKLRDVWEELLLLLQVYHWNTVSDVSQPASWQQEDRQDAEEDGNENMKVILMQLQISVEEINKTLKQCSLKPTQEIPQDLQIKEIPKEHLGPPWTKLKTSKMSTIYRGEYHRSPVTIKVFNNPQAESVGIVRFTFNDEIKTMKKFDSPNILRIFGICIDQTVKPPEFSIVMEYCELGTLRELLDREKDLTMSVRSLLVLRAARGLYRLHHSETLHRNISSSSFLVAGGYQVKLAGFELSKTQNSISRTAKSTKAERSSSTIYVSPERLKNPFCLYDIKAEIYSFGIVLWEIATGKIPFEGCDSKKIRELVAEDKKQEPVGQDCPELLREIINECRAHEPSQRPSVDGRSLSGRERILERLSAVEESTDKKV
Sequence of human MLKL (full length) (Q8NB16 whole entry): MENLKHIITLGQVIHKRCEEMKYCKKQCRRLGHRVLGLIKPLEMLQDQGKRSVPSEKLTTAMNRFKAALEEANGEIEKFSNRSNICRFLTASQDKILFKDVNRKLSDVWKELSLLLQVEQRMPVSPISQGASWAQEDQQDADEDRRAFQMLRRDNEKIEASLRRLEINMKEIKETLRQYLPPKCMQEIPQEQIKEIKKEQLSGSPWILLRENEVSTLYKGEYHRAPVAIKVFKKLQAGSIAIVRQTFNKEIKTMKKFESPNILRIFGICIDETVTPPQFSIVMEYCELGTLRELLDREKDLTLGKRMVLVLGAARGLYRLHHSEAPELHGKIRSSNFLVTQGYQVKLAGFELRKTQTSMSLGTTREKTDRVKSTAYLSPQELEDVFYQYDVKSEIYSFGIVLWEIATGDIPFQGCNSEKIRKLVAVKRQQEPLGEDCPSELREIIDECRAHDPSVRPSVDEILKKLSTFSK
Sequence of endogenous MLKL in U937 (Q8NB16 whole entry): as above

SMILES: C[C@H](Oc1cc(-c2nn(C)c3c(-c4cnn(C5CCN(C)C6(CC6)C5)c4)cnc(N)c23)ccc1NS(=O)(=O)C(F)F)c1ccc(F)cc1 (single isomer, unassigned) [Compound 170, N-(4-(4-amino-1-methyl-7-(1-((S*)-4-methyl-4-azaspiro[2.5]octan-7-yl)-1H-pyrazol-4-yl)-1H-pyrazolo[4,3-c]pyridin-3-yl)-2-((S)-1-(4-fluorophenyl)ethoxy)phenyl)-1,1-difluoromethanesulfonamide]
- pIC50 (U937 cells): < 5.00

SMILES: C[C@H](Oc1cc(-c2nn(C)c3c(-c4cnn(C5CCN(C(=O)COc6cccc7c6C(=O)N(C6CCC(=O)NC6=O)C7=O)CC5)c4)cnc(N)c23)ccc1NS(=O)(=O)C(F)F)c1ccc(F)cc1 (stereo partly drawn) [Compound 1082, N-[4-(4-amino-7-{1-[1-(2-{[2-(2,6-dioxopiperidin-3-yl)-1,3-dioxo-2,3-dihydro-1H-isoindol-4-yl]oxy}acetyl)piperidin-4-yl]-1H-pyrazol-4-yl}-1-methyl-1H-pyrazolo[4,3-c]pyridin-3-yl)-^2-[(1S)-1-(4-fluorophenyl)ethoxy]phenyl]-1,1-difluoromethanesulfonamide]
- pKd (human MLKL (full length)): > 8.00
- pIC50 [1]: 5.00 to 6.00
- DC50 (endogenous MLKL in U937): < 1 µM
- DC50 (endogenous MLKL in MDF): 1 to 10 µM

SMILES: C[C@H](Oc1cc(-c2nn(C)c3c(-c4cnn(C5CCN(C(=O)C6CCN(c7cccc8c7C(=O)N(C7CCC(=O)NC7=O)C8=O)CC6)CC5)c4)cnc(N)c23)ccc1NS(=O)(=O)C(F)F)c1ccc(F)cc1 (stereo partly drawn) [Compound 1044, N-(4-{4-amino-7-[1-(1-{1-[2-(2,6-dioxopiperidin-3-yl)-1,3-dioxo-2,3-dihydro-1H-isoindol-4-yl]piperidine-4-carbonyl}piperidin-4-yl)-1H-pyrazol-4-yl]-1-methyl-1H-pyrazolo [4,3-c]pyridin-3-yl}-2-[(1S)-1-(4-fluorophenyl)ethoxy]phenyl)-1,1-difluoromethanesulfonamide]
- pKd (human MLKL (full length)): > 8.00
- pIC50 [1]: > 6.00
- DC50 (endogenous MLKL in U937): < 1 µM
- DC50 (endogenous MLKL in MDF): < 1 µM

SMILES: C[C@H](Oc1cc(-c2nn(C)c3c(-c4cnn(C5CCN(C(=O)[C@H]6C[C@@H]6C6CCN(c7cccc8c7C(=O)N(C7CCC(=O)NC7=O)C8=O)CC6)CC5)c4)cnc(N)c23)ccc1NS(=O)(=O)C(F)F)c1ccc(F)cc1 (stereo in doubt) [Compound 1130, N-[4-(4-amino-7-{1-[1-(2-{1-[2-(2,6-dioxopiperidin-3-yl)-1,3-dioxo-2,3-dihydro-1H-isoindol-4-yl]piperidin-4-yl}-(trans)-cyclopropanecarbonyl)piperidin-4-yl]-1H-pyrazol-4-yl}-1-methyl-1H-pyrazolo[4,3-c]pyridin-3-yl)-2-[(1S)-1-(4-fluorophenyl)ethoxy]phenyl]-1,1-difluoromethane-sulfonamide]
- pKd (human MLKL (full length)): 6.00 to 8.00
- pIC50 [1]: > 6.00
- DC50 (endogenous MLKL in U937): < 1 µM
- DC50 (endogenous MLKL in MDF): < 1 µM

SMILES: C[C@H](Oc1cc(-c2nn(C)c3c(-c4cnn(C5CCN(C(=O)[C@H]6C[C@H]6C6CCN(c7cccc8c7C(=O)N(C7CCC(=O)NC7=O)C8=O)CC6)CC5)c4)cnc(N)c23)ccc1NS(=O)(=O)C(F)F)c1ccc(F)cc1 (stereo in doubt) [Compound 1129, N-[4-(4-amino-7-{1-[1-(2-{1-[2-(2,6-dioxopiperidin-3-yl)-1,3-dioxo-2,3-dihydro-1H-isoindol-4-yl]piperidin-4-yl}-(cis)-cyclopropanecarbonyl)piperidin-4-yl]-1H-pyrazol-4-yl}-1-methyl-1H-pyrazolo[4,3-c]pyridin-3-yl)-2-[(1S)-1-(4-fluorophenyl)ethoxy]phenyl]-1,1-difluoromethane-sulfonamide]
- pKd (human MLKL (full length)): 6.00 to 8.00
- pIC50 [1]: > 6.00
- DC50 (endogenous MLKL in U937): < 1 µM
- DC50 (endogenous MLKL in MDF): < 1 µM

SMILES: C[C@H](Oc1cc(-c2nn(C)c3c(C#CC(=O)N[C@H]4C[C@H](Nc5cccc6c5C(=O)N(C5CCC(=O)NC5=O)C6=O)C4)cnc(N)c23)ccc1NS(=O)(=O)C(F)F)c1ccc(F)cc1 (stereo partly drawn) [Compound 1109, 3-{4-amino-3-[4-(difluoromethanesulfonamido)-3-[(1S)-1-(4-fluorophenyl)ethoxy]phenyl]-1-methyl-1H-pyrazolo[4,3-c]pyridin-7-yl}-N-[(trans)-3-{[2-(2,6-dioxopiperidin-3-yl)-1,3-dioxo-2,3-dihydro-1H-isoindol-4-yl]amino}cyclobutyl]prop-2-ynamide]
- pKd (human MLKL (full length)): > 8.00
- pIC50 [1]: 5.00 to 6.00
- DC50 (endogenous MLKL in U937): < 1 µM
- DC50 (endogenous MLKL in MDF): < 1 µM

SMILES: C[C@H](Oc1cc(-c2nn(C)c3c(-c4cnn(C5CCN(CCCN6CCN(C(=O)COc7cccc8c7C(=O)N(C7CCC(=O)NC7=O)C8=O)CC6)CC5)c4)cnc(N)c23)ccc1NS(=O)(=O)C(F)F)c1ccc(F)cc1 (stereo partly drawn) [Compound 1099, N-(4-{4-amino-7-[1-(1-{3-[4-(2-{[2-(2,6-dioxopiperidin-3-yl)-1,3-dioxo-2,3-dihydro-1H-isoindol-4-yl]oxy}acetyl)piperazin-1-yl]propyl}piperidin-4-yl)-1H-pyrazol-4-yl]-1-methyl-1H-pyrazolo[4,3-c]pyridin-3-yl}-2-[(1S)-1-(4-fluorophenyl)ethoxy]phenyl)-1,1-difluoromethanesulfonamide]
- pKd (human MLKL (full length)): > 8.00
- pIC50 [1]: 5.00 to 6.00
- DC50 (endogenous MLKL in U937): < 1 µM
- DC50 (endogenous MLKL in MDF): 1 to 10 µM

SMILES: C[C@H](Oc1cc(-c2nn(C)c3c(-c4cnn(C5CCN(CCC6CCN(c7cccc8c7C(=O)N(C7CCC(=O)NC7=O)C8=O)CC6)CC5)c4)cnc(N)c23)ccc1NS(=O)(=O)C(F)F)c1ccc(F)cc1 (stereo partly drawn) [Compound 1076, N-[4-(4-amino-7-{1-[1-(2-{1-[2-(2,6-dioxopiperidin-3-yl)-1,3-dioxo-2,3-dihydro-1H-isoindol-4-yl]piperidin-4-yl}ethyl)piperidin-4-yl]-1H-pyrazol-4-yl}-1-methyl-1H-pyrazolo[4,3-c]pyridin-3-yl)-2-[(1S)-1-(4-fluorophenyl)ethoxy]phenyl]-1,1-difluoromethane-sulfonamide]
- pKd (human MLKL (full length)): > 8.00
- pIC50 [1]: > 6.00
- DC50 (endogenous MLKL in U937): < 1 µM
- DC50 (endogenous MLKL in MDF): 1 to 10 µM

SMILES: Cc1ncsc1-c1ccc(CNC(=O)[C@@H]2C[C@@H](O)CN2C(=O)[C@@H](NC(=O)C2(F)CC2)C(C)(C)C)c(OCCCCCCn2cc(-c3cnc(N)c4c(-c5ccc(NS(=O)(=O)C(F)F)c(O[C@@H](C)c6ccc(F)cc6)c5)nn(C)c34)cn2)c1 [Compound 1057, (2S,4R)-N-[(2-{[6-(4-{4-amino-3-[4-(difluoromethanesulfonamido)-3-[(1S)-1-(4-fluorophenyl)ethoxy]phenyl]-1-methyl-1H-pyrazolo[4,3-c]pyridin-7-yl}-1H-pyrazol-1-yl)hexyl]oxy}-4-(4-methyl-1,3-thiazol-5-yl)phenyl)methyl]-1-[(2S)-2-[(1-fluorocyclopropyl)formamido]-3,3-dimethylbutanoyl]-4-hydroxypyrrolidine-2-carboxamide]
- pKd (human MLKL (full length)): 6.00 to 8.00
- pIC50 [1]: 5.00 to 6.00
- DC50 (endogenous MLKL in U937): < 1 µM
- DC50 (endogenous MLKL in MDF): 1 to 10 µM
